Assay results published in patent US5859067A, “Use of natural products and related synthetic compounds for the treatment of cardiovascular disease” (priority 1993, dated 1999).
“And” between values parts separate entries of the source, which are not always exact repeats. Equal entries are not always repeated.

Legend:
[1] = molecular target: T1, human erythrocyte plasma membrane Ca^2+ -ATPase (Homo sapiens, UniProt P23634); test: Ca^2+ -ATPase assay (microplate method), absence (-CaM) and presence (+CaM) of calmodulin (Table 1A); type: biochemical
T1 construct: Calmodulin-depleted erythrocyte membranes were prepared by continuous filtration through a hollow fibre; tissue New South Wales Red Cross Transfusion Service, Sydney; host or cells: human packed red blood cells (calmodulin-depleted erythrocyte membranes)
Procedure: Natural and synthetic compounds of formula (I) were tested for their ability to influence human erythrocyte plasma membrane Ca^2+ -ATPase. The enzyme Ca^2+ -ATPase in the human red blood cell plasma membrane has previously been studied and its stimulation by calmodulin and activation by lipids and proteolysis and its primary structure have been published (see Carafoli E (1991) Calcium pump of the plasma membrane, Physiological Reviews 71, 129-153.
(§1) Calmodulin-depleted erythrocyte membranes were prepared by continuous filtration through a hollow fibre, Ashahi plasma separator as described by W S Price, B D Roufogalis, P W Kuchel (1989), A simple and inexpensive method for preparing erythrocyte membranes by filtration through a hollow-filter system, Anal. Biochem., 179, 190-193. Packed cells were obtained from the New South Wales Red Cross Transfusion Service, Sydney. The whole preparation was carried out at 4° C. 1 unit of packed red cells was washed 3 times with isotonic buffer, containing 130 mM KCl, 20 mM Tris-HCl (pH 7.4), and the cells were collected by centrifugation at 4,000 RPM. The cells were haemolysed by the buffer containing 1 mM EDTA, 10 mM Tris-Hcl (pH 7.4), 0.5 mM PMSF (phenylmethyl sulfonyl fluoride). The haemolyzate mixture was passed through the hollow fibre system until the membrane appeared white, and then washed with 10 mM potassium Hepes (pH 7.4). The membranes were collected by centrifugation at 10,000 RPM for 20 min, the membranes were resuspended in storage buffer containing 130 mM KCl, 2 mM dithiothreitol, 0.5 mM MgCl2, 20 mM potassium-Hepes (pH 7.5). The membranes with protein concentration of 1.5-5.4 mg/ml were stored at -80° C. until required.
Erythrocyte membranes were incubated at 37° C. for one hour in a total volume of 60 μl of 65 mM KCl, 50 mM HEPES (pH=7.4), 5 mM MgCl2, 50 μM CaCl2, 0.1 mM EGTA and in absence and presence of calmodulin (0.3 μM). Test compounds were dissolved in dimethyl sulfoxide DMSO and 2 μl was added to the assay mixture prior the addition of ATP. The final concentration of DMSO in the assay mixture was 3%. The reaction was started by adding 2 mM ATP (pH=7.4). After 1 hour of incubation, colouring agent (180 μl) was added and incubated at 37° C. for 1/2 hrs. The phosphate liberated to the assay medium was determined spectrometrically using a microplate reader at 750 nm. The activity of the Mg^2+ -ATPase (assayed in the absence of added CaCl2) was subtracted from the total activity assayed in the presence of Ca^2+.

[2] = test system: brine shrimp (Artemia salina Leach); test: Brine shrimp toxicity bioassay; type: in vivo; settings: for LC50: Artemia salina, read-out: LC50 brine shrimp; for LC50 / toxicity to brine shrimp (in words): 24 hours
Procedure: There are many applications of the assay including analysis of toxic substances, anaesthetics, morphine-like substances and cocarcinogenicity of phorbol esters.
6 (K Hostettman, ed.), Academ Press, London, 1-32. DMSO solutions of the substances to be tested were added directly to the vials containing the brine shrimp. As the concentration of DMSO that we wished to use was higher than the recommended 1% v/v testing of the toxicity of the DMSO was therefore necessary.
Brine shrimp toxicity was assayed, except for some minor modifications, according to the method of McLaughlin et al as reported in Brine Shrimp: A convenient general bioassay for active plant constituents, B N Meyer, N R Ferrigni, J E Putman, L B Jacobsen, D E Nhols and J L McLaughlin. […] J L McLaughlin. […] 6 (K Hostettman, ed.), Academ Press, London, 1-32. Ten shrimp were added transferred to each of the vials and the volume adjusted to 4.9 mL. Each dose was performed in triplicate, including the control. In quick succession, the appropriate volume of additional DMSO for each dose, required to achieve a final concentration of 2%, was added before the appropriate volume of test solution. The vials were gently mixed and the time noted. After 24 hours, the number of survivors were counted and % mortality was determined.
The LC50 values were expressed in both μM and μg/mL.

[3] = molecular target: T1, human erythrocyte plasma membrane Ca^2+ -ATPase; test: Ca^2+ -ATPase assay (erythrocyte membranes; Table 1); type: biochemical; settings: for inhibition at 100 µM: read-out: INHIBITION OF Ca^2+ -ATPase PERCENT (%); for IC50: read-out: INHIBITION OF Ca^2+ -ATPase IC50
Procedure: Natural and synthetic compounds of formula (I) were tested for their ability to influence human erythrocyte plasma membrane Ca^2+ -ATPase.
as §1, with “Packed” for “Calmodulin-depleted erythrocyte membranes were prepared by continuous filtration through a hollow fibre, Ashahi plasma separator as described by W S Price, B D Roufogalis, P W Kuchel (1989), A simple and inexpensive method for preparing erythrocyte membranes by filtration through a hollow-filter system, Anal. Biochem., 179, 190-193. Packed”
Erythrocyte membranes (0.071-0.098 mg/ml) were incubated at 37° C. for one hour in a total volume of 0.4 ml of 65 mM KCl, 20 mM potassium-Hepes, 5 mM MgCl2, 50 μM CaCl2, 0.1 μm calmodulin, 0.1 mM EGTA. The reaction was started by adding 2 mM ATP(pH 7.4). […] The activity of the Mg^2+ -ATPase (assayed in the absence of added CaCl2) was subtracted from the total activity assayed in the presence of Ca^2+. […] A concentrated solution of the test substances was added to the reaction medium before adding ATP.

[4] = absence of calmodulin, read-out: IC50 (-CaM)
[5] = presence of calmodulin (0.3 μM), read-out: IC50 (+CaM)
[6] = IC50 (+CaM), presence of calmodulin (0.3 μM)
[7] = IC50 (-CaM), absence of calmodulin

T1 sequence (P23634 1-1205 isoform P23634-6): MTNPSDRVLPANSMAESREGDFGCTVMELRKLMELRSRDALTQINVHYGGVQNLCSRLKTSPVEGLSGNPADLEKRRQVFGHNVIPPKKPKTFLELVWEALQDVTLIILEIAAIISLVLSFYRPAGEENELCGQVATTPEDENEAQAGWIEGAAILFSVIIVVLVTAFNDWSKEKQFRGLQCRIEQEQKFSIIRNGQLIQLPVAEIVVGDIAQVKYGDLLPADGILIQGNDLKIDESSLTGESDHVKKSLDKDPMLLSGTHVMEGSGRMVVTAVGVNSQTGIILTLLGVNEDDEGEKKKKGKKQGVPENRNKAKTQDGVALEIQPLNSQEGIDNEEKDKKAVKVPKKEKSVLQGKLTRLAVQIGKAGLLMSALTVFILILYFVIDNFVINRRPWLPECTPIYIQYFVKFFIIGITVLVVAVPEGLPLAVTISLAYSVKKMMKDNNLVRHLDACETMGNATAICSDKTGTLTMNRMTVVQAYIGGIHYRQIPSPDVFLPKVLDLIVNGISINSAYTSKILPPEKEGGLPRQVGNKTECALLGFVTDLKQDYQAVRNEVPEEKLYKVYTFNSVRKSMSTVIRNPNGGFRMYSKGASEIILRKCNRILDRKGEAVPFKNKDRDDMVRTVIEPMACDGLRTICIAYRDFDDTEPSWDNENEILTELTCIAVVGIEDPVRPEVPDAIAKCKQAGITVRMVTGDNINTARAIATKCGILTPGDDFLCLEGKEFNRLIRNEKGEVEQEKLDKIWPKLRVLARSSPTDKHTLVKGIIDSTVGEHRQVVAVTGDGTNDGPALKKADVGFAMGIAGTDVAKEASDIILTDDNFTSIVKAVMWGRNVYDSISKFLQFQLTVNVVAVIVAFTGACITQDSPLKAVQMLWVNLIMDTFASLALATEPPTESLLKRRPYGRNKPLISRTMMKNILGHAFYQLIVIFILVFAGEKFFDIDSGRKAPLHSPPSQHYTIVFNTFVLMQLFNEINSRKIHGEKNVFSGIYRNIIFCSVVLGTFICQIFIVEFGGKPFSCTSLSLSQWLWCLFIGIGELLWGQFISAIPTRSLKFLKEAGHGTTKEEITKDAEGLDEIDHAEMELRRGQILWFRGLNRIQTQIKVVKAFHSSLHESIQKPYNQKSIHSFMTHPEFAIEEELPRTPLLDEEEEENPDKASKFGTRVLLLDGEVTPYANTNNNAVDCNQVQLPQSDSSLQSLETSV
T1 sequence (P35613 140-385 partner limits assumed): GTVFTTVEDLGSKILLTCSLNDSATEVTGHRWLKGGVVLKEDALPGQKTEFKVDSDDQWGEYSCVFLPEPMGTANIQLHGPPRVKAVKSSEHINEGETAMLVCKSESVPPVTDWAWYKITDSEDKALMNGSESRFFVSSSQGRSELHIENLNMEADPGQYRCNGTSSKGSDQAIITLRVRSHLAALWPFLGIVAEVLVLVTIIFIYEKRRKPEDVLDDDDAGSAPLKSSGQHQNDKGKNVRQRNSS

Compound | IC50 [1, 4] | IC50 [1, 5] | LC50 [2] | further results
2-bromo-6-nonylresorcinol | 400 µM | 400 µM | – | –
4-bromo-6-nonylresorcinol | 400 µM | 400 µM | – | –
CCCCCCCCCC(c1ccccc1O)c1ccccc1O [1,1-bis(2-hydroxyphenyl)decane] | 74 µM | 68 µM | 14 µM and 4.6 µg/mL | –
Oc1ccc(CCCCCCCCc2ccc(O)cc2O)c(O)c1 [1,8-bis(2,4-dihydroxyphenyl)octane] | 50 µM | 48 µM | 74 µM and 24 µg/mL | –
Oc1ccccc1CCCCCCCCc1ccccc1O [1,8-bis(2-hydroxyphenyl)octane] | 24 µM | 24 µM | 3 µM and 0.89 µg/mL | –
Oc1ccccc1CCCCCCCCCc1ccccc1O [1,9-bis(2-hydroxyphenyl)nonane] | 13.5 µM | 14 µM | – | –
Cc1c(O)ccc(CCCCCCCCCCc2ccc(O)c(C)c2O)c1O [1,10-bis(2,4-dihydroxy-3-methylphenyl)decane] | 100 µM | 100 µM | > 25 µM and > 9.7 µg/mL | –
Oc1ccc(CCCCCCCCCCc2ccc(O)cc2O)c(O)c1 [1,10-bis(2,4-dihydroxyphenyl)decane] | 10 µM | 16 µM | 37 µM and 13 µg/mL | toxicity to brine shrimp (in words) [2]: relatively low toxicity; Ca^2+ -ATPase inhibitory activity (in words) [1]: most potent inhibitors of plasma Ca^2+ -ATPase among the synthesised substances
Oc1ccc2ccccc2c1CCCCCCCCCCc1c(O)ccc2ccccc12 [1,10-bis(2-hydroxy-1-naphthyl)decane] | 92 µM | 90 µM | > 25 µM and > 11 µg/mL | –
Cc1cccc(CCCCCCCCCCc2cccc(C)c2O)c1O [1,10-bis(2-hydroxy-3-methylphenyl)decane] | 50 µM | 55 µM | 5.8 µM and 2.1 µg/mL | –
Cc1ccc(CCCCCCCCCCc2ccc(C)cc2O)c(O)c1 [1,10-bis(2-hydroxy-4-methylphenyl)decane] | 29 µM | 29 µM | 14 µM and 5 µg/mL | toxicity to brine shrimp (in words) [2]: reduced toxicity
Cc1ccc(O)c(CCCCCCCCCCc2cc(C)ccc2O)c1 [1,10-bis(2-hydroxy-5-methylphenyl)decane] | 22 µM | 20.5 µM | – | –
Cc1ccc(CCCCCCCCCCc2ccc(C)c(O)c2)cc1O [1,10-bis(3-hydroxy-4-methylphenyl)decane] | 51 µM | 48 µM | 11 µM and 3.9 µg/mL | –
Oc1cccc(CCCCCCCCCCc2cccc(O)c2)c1 [1,10-bis(3-hydroxyphenyl)decane] | 30 µM | 32 µM | 3 µM and 0.98 µg/mL | –
Cc1cc(CCCCCCCCCCc2ccc(O)c(C)c2)ccc1O [1,10-bis(4-hydroxy-3-methylphenyl)decane] | 100 µM | 94 µM | 4.2 µM and 1.5 µg/mL | –
Oc1ccc(CCCCCCCCCCCc2ccc(O)cc2O)c(O)c1 [1,11-bis(2,4-dihydroxyphenyl)undecane] | 25 µM | 21.7 µM | > 25 µM and > 9.3 µg/mL | –
CCCCCCCCCc1cc([N+](=O)[O-])cc(Br)c1O [2-bromo-4-nitro-6-nonylphenol] | – | – | – | IC50 [1, 6]: 70 µM
CCCCCCCCCc1ccc(C)cc1O [3-methyl-6-nonylphenol] | – | – | – | IC50 [1, 6]: 60 µM; IC50 [1, 7]: 52 µM
CCCCCCCCCc1cc(Br)cc([N+](=O)[O-])c1O [4-bromo-2-nitro-6-nonylphenol] | – | – | – | IC50 [1, 6]: 65.5 µM
CCCCCCCCCc1cc(Br)ccc1O [4-bromo-6-nonylphenol] | – | – | – | IC50 [1, 6]: 55 µM; IC50 [1, 7]: 52 µM
CCCCCCCCCc1cc(C)ccc1O [4-methyl-6-nonylphenol] | – | – | – | IC50 [1, 6]: 75 µM; IC50 [1, 7]: 80 µM
CCCCCCCCCc1cc([N+](=O)[O-])ccc1O [4-nitro-6-nonylphenol] | – | – | – | IC50 [1, 6]: 70 µM; IC50 [1, 7]: 80 µM
C=C(C)C(CC=C(C)C)Cc1c(OC)cc(O)c2c1OC(c1c(O)cccc1O)CC2=O (stereo not drawn) [5,2',6'-trihydroxy-8-lavandulyl-7-methoxyflavanone] | 45.3 µM | – | – | –
C=C(C)C(CC=C(C)C)Cc1c(O)cc(O)c2c1OC(c1ccccc1O)CC2=O (stereo not drawn) [5,7,6'-trihydroxy-8-lavandulylflavanone] | 26.5 µM | – | – | –
CCCCCCCCCc1cc(O)cc(O)c1C(=O)OCC [ethyl 2,4-dihydroxy-6-nonylbenzoate] | – | – | 2.6 µM and 0.8 µg/mL | inhibition at 100 µM [3]: 73%; IC50 [3]: 62 µM
CCCCCCCCCCc1c(Br)c(O)c(Br)c(O)c1C(=O)OCC [ethyl 3,5-dibromo-2,4-dihydroxy-6-decylbenzoate] | – | – | 780 nM and 0.37 µg/mL | inhibition at 100 µM [3]: 73%; IC50 [3]: 69 µM
CCCCCCCCCc1c(Br)c(O)c(Br)c(O)c1C(=O)OCC [ethyl 3,5-dibromo-2,4-dihydroxy-6-nonylbenzoate] | – | – | 780 nM and 0.36 µg/mL | inhibition at 100 µM [3]: 95%; IC50 [3]: 44 µM
CCCCCCCCCCCCCc1cc(O)cc(O)c1 [grevillol, 5-tridecylresorcinol] | – | – | 2.8 µM and 0.8 µg/mL | toxicity to brine shrimp (in words) [2]: moderately toxic; Ca^2+ -ATPase inhibitory activity (in words) [3]: weak; inhibition at 100 µM [3]: 44%; IC50 [3]: 143 µM
CC(C)=CCC/C(C)=C/CC/C(C)=C/Cc1c(O)cc(C)cc1O [grifolin, 2-E,E-farnesyl-5-methyl-resorcinol] | – | – | 2.3 µM and 0.75 µg/mL | inhibition at 100 µM [3]: 100%; IC50 [3]: 22.5 µM
CC(C)=CCC/C(C)=C/CC/C(C)=C/Cc1c(C)cc(O)cc1O [neogrifolin, 4-E,E-farnesyl-5-methyl-resorcinol] | – | – | 28 µM and 9 µg/mL | relative toxicity to brine shrimp ([2]; neogrifolin compared with grifolin): about ten-fold weaker; Ca^2+ -ATPase inhibitory activity (in words) [3]: most potent among the alkyl and alkenyl resorcinols tested; inhibition at 100 µM [3]: 100%; IC50 [3]: 23.3 µM
